Experimental data reported in the supplement of paper PMC11451515.

Test system: NOMO1
Test: cell viability relative to DMSO control; higher = less cytotoxic
Conditions: 48 h
How it was run: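 In 1536-well plates, 5 μl of leukemia cells were seeded per well: 500 cells/well for NOMO1 or SEM and 1000 cells/well for P12-Ichikawa. Each line had first been adapted for at least four passages in each medium. Library compounds in DMSO were pin-dosed at 11 threefold concentrations between 47 μM and 0.79 nM, and CellTiter-Glo One luminescence was read after 48 h at 37°C. Viability is a per-plate percentage relative to DMSO wells, with cell-free wells as background.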

[1] = HPLM + 10% dialyzed FBS, 0.000781 µM
[2] = HPLM + 10% dialyzed FBS, 0.00234 µM
[3] = HPLM + 10% dialyzed FBS, 0.00702 µM
[4] = HPLM + 10% dialyzed FBS, 0.0211 µM
[5] = HPLM + 10% dialyzed FBS, 0.0632 µM
[6] = HPLM + 10% dialyzed FBS, 0.19 µM
[7] = HPLM + 10% dialyzed FBS, 0.569 µM
[8] = HPLM + 10% dialyzed FBS, 1.71 µM
[9] = HPLM + 10% dialyzed FBS, 5.12 µM
[10] = HPLM + 10% dialyzed FBS, 15.4 µM
[11] = HPLM + 10% dialyzed FBS, 46.1 µM
[12] = RPMI 5 mM glucose + 10% FBS, 0.000781 µM
[13] = RPMI 5 mM glucose + 10% FBS, 0.00234 µM
[14] = RPMI 5 mM glucose + 10% FBS, 0.00702 µM
[15] = RPMI 5 mM glucose + 10% FBS, 0.0211 µM
[16] = RPMI 5 mM glucose + 10% FBS, 0.0632 µM
[17] = RPMI 5 mM glucose + 10% FBS, 0.19 µM
[18] = RPMI 5 mM glucose + 10% FBS, 0.569 µM
[19] = RPMI 5 mM glucose + 10% FBS, 1.71 µM
[20] = RPMI 5 mM glucose + 10% FBS, 5.12 µM
[21] = RPMI 5 mM glucose + 10% FBS, 15.4 µM
[22] = RPMI 5 mM glucose + 10% FBS, 46.1 µM
[23] = RPMI 5 mM glucose + 10% dialyzed FBS, 0.000781 µM
[24] = RPMI 5 mM glucose + 10% dialyzed FBS, 0.00234 µM
[25] = RPMI 5 mM glucose + 10% dialyzed FBS, 0.00702 µM
[26] = RPMI 5 mM glucose + 10% dialyzed FBS, 0.0211 µM
[27] = RPMI 5 mM glucose + 10% dialyzed FBS, 0.0632 µM
[28] = RPMI 5 mM glucose + 10% dialyzed FBS, 0.19 µM
[29] = RPMI 5 mM glucose + 10% dialyzed FBS, 0.569 µM
[30] = RPMI 5 mM glucose + 10% dialyzed FBS, 1.71 µM
[31] = RPMI 5 mM glucose + 10% dialyzed FBS, 5.12 µM
[32] = RPMI 5 mM glucose + 10% dialyzed FBS, 15.4 µM
[33] = RPMI 5 mM glucose + 10% dialyzed FBS, 46.1 µM

SMILES | cell viability [1] [%] | cell viability [2] [%] | cell viability [3] [%] | cell viability [4] [%] | cell viability [5] [%] | cell viability [6] [%] | cell viability [7] [%] | cell viability [8] [%] | cell viability [9] [%] | cell viability [10] [%] | cell viability [11] [%] | cell viability [12] [%] | cell viability [13] [%] | cell viability [14] [%] | cell viability [15] [%] | cell viability [16] [%] | cell viability [17] [%] | cell viability [18] [%] | cell viability [19] [%] | cell viability [20] [%] | cell viability [21] [%] | cell viability [22] [%] | cell viability [23] [%] | cell viability [24] [%] | cell viability [25] [%] | cell viability [26] [%] | cell viability [27] [%] | cell viability [28] [%] | cell viability [29] [%] | cell viability [30] [%] | cell viability [31] [%] | cell viability [32] [%] | cell viability [33] [%]
Clc1ccc(COC(Cn2ccnc2)c2ccc(Cl)cc2Cl)cc1 (stereo unspecified) | 118 | 119 | 105 | 115 | 111 | 104 | 111 | 127 | 132 | 118 | 93.2 | 107 | 104 | 110 | 123 | 111 | 109 | 121 | 117 | 119 | 110 | 102 | 114 | 112 | 103 | 121 | 115 | 125 | 121 | 120 | 114 | 121 | 83.6
Cc1c(OCC(F)(F)F)ccnc1C[S+]([O-])c1nc2ccccc2[nH]1 (stereo unspecified) | 100 | 100 | 107 | 96.6 | 108 | 118 | 122 | 97.7 | 113 | 122 | 110 | 110 | 114 | 105 | 113 | 105 | 108 | 119 | 103 | 118 | 108 | 117 | 102 | 111 | 111 | 109 | 113 | 113 | 115 | 120 | 128 | 113 | 123
CCc1cc(/C(C)=N/OCc2ccc(C3CCCCC3)c(C(F)(F)F)c2)ccc1CN1CC(C(=O)O)C1 | 111 | 133 | 106 | 108 | 129 | 109 | 108 | 79.1 | 66.4 | 31.8 | 40.1 | 110 | 113 | 104 | 115 | 135 | 115 | 120 | 107 | 107 | 26.8 | 20.9 | 99 | 116 | 117 | 112 | 119 | 114 | 115 | 103 | 103 | 26.6 | 29
O=C1c2cccc(O)c2C(=O)c2c(O)cc(CO)cc21 | 89.5 | 109 | 87.5 | 89.8 | 98.5 | 81.8 | 82.5 | 86.5 | 81.9 | 75.8 | 76.8 | 96.8 | 92.5 | 92.1 | 91.9 | 87.1 | 88.3 | 90.6 | 92.8 | 81.9 | 85.5 | 78.9 | 97.8 | 106 | 104 | 95.4 | 100 | 93.1 | 102 | 79.7 | 85.2 | 94.5 | 94.3
CN(C)c1nc(N(C)C)nc(N(C)C)n1 | 101 | 113 | 100 | 105 | 96.3 | 92 | 90.5 | 97.1 | 98.7 | 82.3 | 89.9 | 96.2 | 108 | 102 | 97.4 | 99 | 95.3 | 94.6 | 92.2 | 95.9 | 95.3 | 91 | 94 | 103 | 96 | 99 | 98.4 | 103 | 101 | 89.4 | 83.9 | 90.8 | 85.6
COc1ccc2cccc(CCNC(C)=O)c2c1 | 111 | 114 | 95.7 | 123 | 104 | 87.9 | 122 | 104 | 101 | 89.7 | 85 | 90.8 | 91.6 | 86.5 | 92.9 | 84.7 | 84.6 | 85.6 | 94.7 | 83.1 | 83.2 | 80.1 | 94.7 | 96.6 | 105 | 82.5 | 91.3 | 97.4 | 97.2 | 90.2 | 86 | 93.7 | 79.6
NC\1=N\C(=O)N(\C=N1)[C@H]2C[C@H](O)[C@@H](CO)O2 | 110 | 138 | 101 | 115 | 101 | 107 | 91.4 | 82.4 | 60.2 | 46.5 | 43.6 | 91.8 | 106 | 89.6 | 92.8 | 93.4 | 93.7 | 98.9 | 85.4 | 71.1 | 51.8 | 31.5 | 109 | 122 | 107 | 112 | 98.6 | 109 | 114 | 96.7 | 76.5 | 65.9 | 36.1
